Assay results as given in patent publication US20240217979A1, “GluN2 Subunit Selective Antagonists of the N-Methyl-D-Aspartate Receptors” (Emory University, priority 2021, published 2024).

Legend:
Type in all cases: cell-based
rat GluN1/GluN2A [1] = molecular target: T1, rat GluN1/GluN2A (Rattus norvegicus, UniProt P35439+Q00959); assay: Two-electrode voltage-clamp recording in Xenopus laevis oocytes expressing recombinant rat GluN1/GluN2A; conditions: for remaining activity at 30 µM: 30 μM test compound, current ratio, oocytes, read-out: I30 μM/Icontrol (mean ± SEM, %) GluN2A; for IC50: Tables 1 and 2, read-out: IC50 (μM) [95% Confidence Interval] GluN2A
T1 construct: expressed in transfected cells; host or cells: Xenopus laevis oocytes (cRNA injection, GluN1/GluN2 ratio 1:2)
Experimental: (§1) Two-electrode voltage-clamp recording was performed in Xenopus laevis oocytes injected with mRNA to express recombinant rat GluN1/GluN2A, GluN1/GluN2B, GluN1/GluN2C, and GluN1/GluN2D. cDNAs for rat NMDA subunits GluN1-la (GenBank U08261; hereafter GluN1), GluN2A (GenBank D13211), GluN2B (GenBank U11419), GluN2C (GenBank M91563), and GluN2D (GenBank L31611) were provided by Drs. S. Heinemann from Salk Institute, S. Nakanishi from Kyoto University, and P. Seeburg from the University of Heidelberg. An automatic injector (Nanoject II, Drummond Scientific) was used for cRNA injection using the pipettes filled with mineral oil. The cRNA that transcribed in vitro via the mMessage Machine kit (Ambion) was diluted with nuclease-free water, and then injected at a GluN1/GluN2 ratio of 1:2. The oocytes were stored in Barth's solution that contained 88 mM NaCl, 5.0 mM Tris-HCl, 2.4 mM NaHCO3, 1.0 mM KCl, 0.84 mM MgSO4, 0.41 mM CaCl2), 0.33 mM Ca(NO3)2, 0.1 mg/ml gentamycin sulfate, 1.0 U/ml penicillin, and 1 μg/ml streptomycin at pH 7.4 and temperatures of 15-17° C. for two to five days before the two-electrode voltage-clamp recordings.
(§2) During recording, the oocytes were placed in a perfusion chamber and continually washed with the recording solution containing 90 mM NaCl, 1.0 mM KCl, 0.50 mM BaCl2, 0.005 mM EDTA, and 10 mM HEPES at pH 7.4 and a temperature of 23° C. Glass electrodes with a tip resistance of 0.5 to 2.5 MΩ were obtained from thin-walled glass capillary tubes. Voltage electrodes and current electrodes were filled with 0.3 M and 3.0 M KCl, respectively. The recordings were executed with the oocytes membrane potential holding at −40 mV by an OC-725 amplifier (Warner Instrument Co.). All compounds were dissolved in dimethyl sulfoxide (DMSO) as 20 mM stock solutions and further diluted to reach the desired concentration (0.05-0.5% (vol/vol) DMSO) in recording solution comprised of 30 µM glycine and 100 µM glutamate. In general, each compound was tested in multiple oocytes. To evaluate the inhibitory efficacy of the compounds, concentration-response curves were plotted using the average two-electrode voltage-clamp recording results and fitted by the following equation:
(§3) response=100/{1+[(inhibitor concentration)/IC50]^N} • where IC50 is the concentration of compound that inhibit half maximal of the current response and N is the Hill slope.

rat GluN1/GluN2B [2] = molecular target: T2, rat GluN1/GluN2B (Rattus norvegicus, UniProt P35439+Q00960); assay: Two-electrode voltage-clamp recording in Xenopus laevis oocytes expressing recombinant rat GluN1/GluN2B; conditions: for remaining activity at 30 µM: 30 μM test compound, current ratio, oocytes, read-out: I30 μM/Icontrol (mean ± SEM, %) GluN2B; for IC50: Tables 1 and 2, read-out: IC50 (μM) [95% Confidence Interval] GluN2B
T2 construct: expressed in transfected cells; host or cells: Xenopus laevis oocytes (cRNA injection, GluN1/GluN2 ratio 1:2)
Experimental: as §1, §2, §3

rat GluN1/GluN2C [3] = molecular target: T3, rat GluN1/GluN2C (Rattus norvegicus, UniProt P35439+Q00961); assay: Two-electrode voltage-clamp recording in Xenopus laevis oocytes expressing recombinant rat GluN1/GluN2C; conditions: for remaining activity at 30 µM: 30 μM test compound, current ratio, oocytes, read-out: I30 μM/Icontrol (mean ± SEM, %) GluN2C; for IC50: Tables 1 and 2, read-out: IC50 (μM) [95% Confidence Interval] GluN2C
T3 construct: expressed in transfected cells; host or cells: Xenopus laevis oocytes (cRNA injection, GluN1/GluN2 ratio 1:2)
Experimental: as §1, §2, §3

rat GluN1/GluN2D [4] = molecular target: T4, rat GluN1/GluN2D (Rattus norvegicus, UniProt P35439+Q62645); assay: Two-electrode voltage-clamp recording in Xenopus laevis oocytes expressing recombinant rat GluN1/GluN2D; conditions: for remaining activity at 30 µM: 30 μM test compound, current ratio, oocytes, read-out: I30 μM/Icontrol (mean ± SEM, %) GluN2D; for IC50: Tables 1 and 2, read-out: IC50 (μM) [95% Confidence Interval] GluN2D
T4 construct: expressed in transfected cells; host or cells: Xenopus laevis oocytes (cRNA injection, GluN1/GluN2 ratio 1:2)
Experimental: as §1, §2, §3

rat GluN1/GluN2D [5] = molecular target: T5, rat GluN1/GluN2D (Rattus norvegicus, UniProt Q62645); assay: as above; conditions: for Subunit Selectivity 2A IC50/2D IC50: ratio of GluN2A IC50 to GluN2D IC50; for Subunit Selectivity 2B IC50/2D IC50: ratio of GluN2B IC50 to GluN2D IC50
T5 construct: expressed in transfected cells; host or cells: Xenopus laevis oocytes (cRNA injection, GluN1/GluN2 ratio 1:2)
Experimental: as §1, §2, §3

rat GluN1/GluN2B [6] = molecular target: T6, rat GluN1/GluN2B (Rattus norvegicus, UniProt Q00960); assay: Two-electrode voltage-clamp recording in Xenopus laevis oocytes expressing recombinant rat GluN1/GluN2B
T6 construct: expressed in transfected cells; host or cells: Xenopus laevis oocytes (cRNA injection, GluN1/GluN2 ratio 1:2)
Experimental: as §1, §2, §3

rat GluN1/GluN2A [7] = molecular target: T7, rat GluN1/GluN2A (Rattus norvegicus, UniProt Q00959); assay: Two-electrode voltage-clamp recording in Xenopus laevis oocytes expressing recombinant rat GluN1/GluN2A; conditions: current ratio reported for 10 μM test compound (footnote c)
T7 construct: expressed in transfected cells; host or cells: Xenopus laevis oocytes (cRNA injection, GluN1/GluN2 ratio 1:2)
Experimental: as §1, §2, §3

rat GluN1/GluN2C [8] = molecular target: T8, rat GluN1/GluN2C (Rattus norvegicus, UniProt Q00961); assay: Two-electrode voltage-clamp recording in Xenopus laevis oocytes expressing recombinant rat GluN1/GluN2C; conditions: current ratio reported for 10 μM test compound (footnote c)
T8 construct: expressed in transfected cells; host or cells: Xenopus laevis oocytes (cRNA injection, GluN1/GluN2 ratio 1:2)
Experimental: as §1, §2, §3

[9] = current ratio reported for 10 μM test compound (footnote c)

T2 sequence (Q00960 27-1482, other chains not shown): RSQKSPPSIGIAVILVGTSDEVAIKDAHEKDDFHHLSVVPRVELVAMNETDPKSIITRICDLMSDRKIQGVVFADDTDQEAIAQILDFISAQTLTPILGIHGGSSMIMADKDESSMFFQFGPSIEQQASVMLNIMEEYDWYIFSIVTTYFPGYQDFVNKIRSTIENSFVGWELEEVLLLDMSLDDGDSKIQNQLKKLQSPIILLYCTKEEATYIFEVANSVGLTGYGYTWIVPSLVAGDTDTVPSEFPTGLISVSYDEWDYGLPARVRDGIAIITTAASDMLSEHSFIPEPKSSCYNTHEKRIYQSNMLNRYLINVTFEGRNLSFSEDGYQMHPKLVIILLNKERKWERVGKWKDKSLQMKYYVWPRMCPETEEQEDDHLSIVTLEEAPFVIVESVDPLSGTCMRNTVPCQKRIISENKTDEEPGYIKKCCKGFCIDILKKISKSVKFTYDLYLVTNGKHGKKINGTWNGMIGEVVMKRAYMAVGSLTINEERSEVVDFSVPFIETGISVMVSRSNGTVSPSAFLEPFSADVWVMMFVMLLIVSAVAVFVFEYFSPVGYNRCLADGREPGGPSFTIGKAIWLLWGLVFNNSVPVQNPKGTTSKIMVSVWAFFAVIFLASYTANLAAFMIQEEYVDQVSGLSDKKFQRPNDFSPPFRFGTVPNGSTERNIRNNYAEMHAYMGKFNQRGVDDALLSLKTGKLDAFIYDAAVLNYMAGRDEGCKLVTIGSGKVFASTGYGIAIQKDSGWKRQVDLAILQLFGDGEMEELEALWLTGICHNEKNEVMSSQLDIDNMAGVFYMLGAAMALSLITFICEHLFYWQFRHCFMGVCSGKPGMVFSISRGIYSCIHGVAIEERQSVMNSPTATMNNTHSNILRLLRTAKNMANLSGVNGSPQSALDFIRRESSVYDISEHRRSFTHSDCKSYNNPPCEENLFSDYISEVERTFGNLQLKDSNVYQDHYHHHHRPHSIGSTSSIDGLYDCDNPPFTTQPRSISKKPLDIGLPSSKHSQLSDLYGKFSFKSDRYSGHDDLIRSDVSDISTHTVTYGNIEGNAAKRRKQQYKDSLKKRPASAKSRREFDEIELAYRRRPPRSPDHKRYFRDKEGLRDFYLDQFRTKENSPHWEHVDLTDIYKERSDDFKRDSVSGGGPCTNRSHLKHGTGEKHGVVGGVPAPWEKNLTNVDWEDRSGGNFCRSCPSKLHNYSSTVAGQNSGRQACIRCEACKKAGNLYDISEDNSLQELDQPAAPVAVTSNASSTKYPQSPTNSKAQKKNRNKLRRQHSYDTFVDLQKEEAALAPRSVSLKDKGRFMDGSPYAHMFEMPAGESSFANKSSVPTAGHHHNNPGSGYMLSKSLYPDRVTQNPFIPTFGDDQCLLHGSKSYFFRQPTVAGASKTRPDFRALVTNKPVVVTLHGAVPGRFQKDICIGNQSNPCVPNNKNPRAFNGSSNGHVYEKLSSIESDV
T1 sequence (Q00959 23-1464, other chains not shown): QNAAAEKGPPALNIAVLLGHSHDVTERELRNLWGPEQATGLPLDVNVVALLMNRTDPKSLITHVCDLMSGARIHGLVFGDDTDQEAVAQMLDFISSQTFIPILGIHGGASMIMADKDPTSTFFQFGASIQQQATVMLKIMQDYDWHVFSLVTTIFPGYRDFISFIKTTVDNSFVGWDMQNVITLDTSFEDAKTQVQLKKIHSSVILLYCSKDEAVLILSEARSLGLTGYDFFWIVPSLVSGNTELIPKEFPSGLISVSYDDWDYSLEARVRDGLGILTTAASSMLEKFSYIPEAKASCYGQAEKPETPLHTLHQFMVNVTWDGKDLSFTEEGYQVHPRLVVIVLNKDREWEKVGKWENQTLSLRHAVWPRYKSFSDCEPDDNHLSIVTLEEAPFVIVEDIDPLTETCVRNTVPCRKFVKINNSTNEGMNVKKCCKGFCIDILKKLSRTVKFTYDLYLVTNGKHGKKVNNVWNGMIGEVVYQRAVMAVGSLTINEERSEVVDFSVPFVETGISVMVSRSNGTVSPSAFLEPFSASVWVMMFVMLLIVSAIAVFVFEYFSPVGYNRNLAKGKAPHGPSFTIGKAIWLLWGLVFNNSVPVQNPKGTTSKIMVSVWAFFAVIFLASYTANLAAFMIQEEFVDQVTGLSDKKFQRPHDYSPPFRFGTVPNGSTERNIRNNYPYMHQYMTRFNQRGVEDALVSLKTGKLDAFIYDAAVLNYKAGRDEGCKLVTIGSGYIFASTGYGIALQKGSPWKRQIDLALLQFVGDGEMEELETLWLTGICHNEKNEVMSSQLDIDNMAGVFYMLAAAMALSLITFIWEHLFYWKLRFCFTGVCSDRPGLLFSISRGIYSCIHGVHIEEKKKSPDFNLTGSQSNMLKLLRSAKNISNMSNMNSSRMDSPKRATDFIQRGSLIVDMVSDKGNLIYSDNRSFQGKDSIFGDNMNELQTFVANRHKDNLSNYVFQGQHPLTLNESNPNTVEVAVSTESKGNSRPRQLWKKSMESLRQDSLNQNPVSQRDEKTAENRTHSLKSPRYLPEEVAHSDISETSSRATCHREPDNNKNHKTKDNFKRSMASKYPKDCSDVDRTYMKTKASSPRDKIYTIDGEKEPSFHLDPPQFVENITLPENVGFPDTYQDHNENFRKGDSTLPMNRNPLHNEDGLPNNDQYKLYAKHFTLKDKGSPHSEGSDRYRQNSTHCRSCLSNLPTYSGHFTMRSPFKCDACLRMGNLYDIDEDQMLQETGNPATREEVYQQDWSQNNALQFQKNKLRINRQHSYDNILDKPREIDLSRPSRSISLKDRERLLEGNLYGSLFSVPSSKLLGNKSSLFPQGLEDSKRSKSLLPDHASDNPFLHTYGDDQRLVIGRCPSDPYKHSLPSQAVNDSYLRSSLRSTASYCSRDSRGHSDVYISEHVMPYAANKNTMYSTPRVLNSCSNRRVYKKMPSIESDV
T4 sequence (Q62645 28-1323, other chains not shown): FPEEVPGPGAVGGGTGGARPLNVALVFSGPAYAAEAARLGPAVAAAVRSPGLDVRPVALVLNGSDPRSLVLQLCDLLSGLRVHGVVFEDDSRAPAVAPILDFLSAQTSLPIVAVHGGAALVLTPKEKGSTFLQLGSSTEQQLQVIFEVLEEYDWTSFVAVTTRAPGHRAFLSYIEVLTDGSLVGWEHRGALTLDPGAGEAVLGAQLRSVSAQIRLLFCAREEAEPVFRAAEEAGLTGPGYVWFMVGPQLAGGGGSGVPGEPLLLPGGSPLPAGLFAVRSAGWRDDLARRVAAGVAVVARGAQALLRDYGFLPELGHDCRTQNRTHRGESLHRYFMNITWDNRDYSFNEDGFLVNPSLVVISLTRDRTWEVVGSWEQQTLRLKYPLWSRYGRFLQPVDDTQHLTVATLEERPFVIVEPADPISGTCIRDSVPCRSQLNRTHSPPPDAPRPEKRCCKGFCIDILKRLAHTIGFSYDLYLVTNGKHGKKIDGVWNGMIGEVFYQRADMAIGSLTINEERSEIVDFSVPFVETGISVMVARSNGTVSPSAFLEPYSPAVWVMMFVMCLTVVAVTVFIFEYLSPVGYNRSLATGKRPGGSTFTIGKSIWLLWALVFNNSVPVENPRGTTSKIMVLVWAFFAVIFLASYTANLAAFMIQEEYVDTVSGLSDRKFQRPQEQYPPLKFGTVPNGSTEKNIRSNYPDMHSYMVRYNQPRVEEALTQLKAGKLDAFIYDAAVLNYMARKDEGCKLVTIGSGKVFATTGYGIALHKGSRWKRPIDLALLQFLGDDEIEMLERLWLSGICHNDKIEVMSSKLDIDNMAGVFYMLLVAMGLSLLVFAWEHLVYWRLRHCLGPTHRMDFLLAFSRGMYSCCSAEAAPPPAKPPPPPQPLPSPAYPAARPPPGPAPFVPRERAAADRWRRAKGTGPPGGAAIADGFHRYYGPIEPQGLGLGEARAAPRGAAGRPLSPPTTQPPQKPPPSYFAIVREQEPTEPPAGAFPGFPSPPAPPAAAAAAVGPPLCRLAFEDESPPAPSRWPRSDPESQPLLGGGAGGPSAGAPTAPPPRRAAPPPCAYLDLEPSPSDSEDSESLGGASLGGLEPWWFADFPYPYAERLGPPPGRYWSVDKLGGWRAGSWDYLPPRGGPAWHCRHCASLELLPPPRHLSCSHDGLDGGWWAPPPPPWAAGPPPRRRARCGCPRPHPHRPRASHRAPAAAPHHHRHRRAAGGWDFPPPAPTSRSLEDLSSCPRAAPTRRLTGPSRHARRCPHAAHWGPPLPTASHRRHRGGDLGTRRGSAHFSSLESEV
T5 sequence (Q62645 28-1323, other chains not shown): as above

| Compound | remaining activity at 30 µM (rat GluN1/GluN2A [1]) [%] | IC50 (rat GluN1/GluN2A [1]) [µM] | remaining activity at 30 µM (rat GluN1/GluN2B [2]) [%] | IC50 (rat GluN1/GluN2B [2]) [µM] | remaining activity at 30 µM (rat GluN1/GluN2C [3]) [%] | IC50 (rat GluN1/GluN2C [3]) [µM] | remaining activity at 30 µM (rat GluN1/GluN2D [4]) [%] | IC50 (rat GluN1/GluN2D [4]) [µM] | Subunit Selectivity 2A IC50/2D IC50 (rat GluN1/GluN2D [5]) | Subunit Selectivity 2B IC50/2D IC50 (rat GluN1/GluN2D [5]) | Current ratio I/Icontrol (mean ± SEM, %) GluN2B (rat GluN1/GluN2B [6]; current ratio reported for 3 μM test compound (footnote d, Table 2)) | Current ratio I/Icontrol (mean ± SEM, %) GluN2A (rat GluN1/GluN2A [7]) | Current ratio I/Icontrol (mean ± SEM, %) GluN2B (rat GluN1/GluN2B [6]; [9]) | Current ratio I/Icontrol (mean ± SEM, %) GluN2C (rat GluN1/GluN2C [8]) | Current ratio I/Icontrol (mean ± SEM, %) GluN2D (rat GluN1/GluN2D [5]; [9]) |
| --- | --- | --- | --- | --- | --- | --- | --- | --- | --- | --- | --- | --- | --- | --- | --- |
| O=C(O)CC(F)(F)C(=O)N1N=C(c2c(-c3ccc(Br)cc3)c3ccsc3[nH]c2=O)CC1c1ccc(Cl)cc1 (stereo not drawn) [57(a), 4-[5-[4-(4-Bromophenyl)-6-oxo-7H-thieno[2,3-b]pyridin-5-yl]-3-(4-chlorophenyl)-3,4-dihydropyrazol-2-yl]-3,3-difluoro-4-oxo-butanoic acid] | 47.6 ± 5.5 | 11 | 37.7 ± 3.5 | 19 | 22 ± 1.5 | 0.56 | 19 ± 3 | 0.43 | 24 | 44 | – | – | – | – | – |
| O=C(O)CC(F)(F)C(=O)N1N=C(c2c(-c3ccc(Cl)cc3)c3ccsc3[nH]c2=O)CC1c1ccc(Cl)cc1 (stereo not drawn) [57(b), 4-[3-(4-Chlorophenyl)-5-[4-(4-chlorophenyl)-6-oxo-7H-thieno[2,3-b]pyridin-5-yl]-3,4-dihydropyrazol-2-yl]-3,3-difluoro-4-oxo-butanoic acid] | 86 ± 7.4 | – | – | – | 6.9 ± 2.5 | 0.32 | 5.9 ± 2.7 | 0.25 | – | – | 88 ± 4.6^d (n = 1, 4) % | – | – | – | – |
| O=C(O)CC(F)(F)C(=O)N1N=C(c2cnccc2-c2ccccc2)CC1c1ccc(Cl)cc1 (stereo not drawn) [Compound 15, 4-[3-(4-Chlorophenyl)-5-(4-phenyl-3-pyridyl)-3,4-dihydropyrazol-2-yl]-3,3-difluoro-4-oxo-butanoic acid] | 98 ± 4.1 | – | 82 ± 1.1 | – | 91 ± 3.5 | – | 74 ± 7.1 | – | – | – | – | – | – | – | – |
| O=C(O)CC(F)(F)C(=O)N1N=C(c2c(-c3ccc(Cl)cc3)cc[nH]c2=O)CC1c1ccc(Cl)cc1 (stereo not drawn) [Compound 28, 4-[3-(4-Chlorophenyl)-5-[4-(4-chlorophenyl)-2-oxo-1H-pyridin-3-yl]-3,4-dihydropyrazol-2-yl]-3,3-difluoro-4-oxo-butanoic acid] | 104 ± 2.2 | – | 96 ± 2.4 | – | 61 ± 1 | 55 | 39 ± 1.7 | 20 | – | – | – | – | – | – | – |
| O=C(O)CC(F)(F)C(=O)N1N=C(c2cnccc2-c2ccc(Cl)cc2)CC1c1ccc(Cl)cc1 (stereo not drawn) [Compound 29, 4-[3-(4-Chlorophenyl)-5-[4-(4-chlorophenyl)-3-pyridyl]-3,4-dihydropyrazol-2-yl]-3,3-difluoro-4-oxo-butanoic acid] | 74 ± 3.4 | – | 79 ± 4.3 | – | 35 ± 0.84 | 15 | 27 ± 2.3 | 12 | – | – | – | – | – | – | – |
| Cc1cc(-c2ccc(Cl)cc2)c(C2=NN(C(=O)C(F)(F)CC(=O)O)C(c3ccc(Cl)cc3)C2)c(=O)[nH]1 (stereo not drawn) [Compound 55, 4-[3-(4-Chlorophenyl)-5-[4-(4-chlorophenyl)-6-methyl-2-oxo-1H-pyridin-3-yl]-3,4-dihydropyrazol-2-yl]-3,3-difluoro-4-oxo-butanoic acid] | 86 ± 4.4 | – | 55 ± 3 | 41 | 29 ± 2 | 14 | 26 ± 1.8 | 12 | – | 3 | – | – | – | – | – |
| Cc1[nH]c(=O)c(C2=NN(C(=O)C(F)(F)CC(=O)O)C(c3ccc(Cl)cc3)C2)c(-c2ccc(Cl)cc2)c1C (stereo not drawn) [Compound 56, 4-[3-(4-Chlorophenyl)-5-[4-(4-chlorophenyl)-5,6-dimethyl-2-oxo-1H-pyridin-3-yl]-3,4-dihydropyrazol-2-yl]-3,3-difluoro-4-oxo-butanoic acid] | 71 ± 5 | 42 | 58 ± 2 | 47 | 2.7 ± 0.32 | 1.9 | 7.9 ± 2.9 | 2.6 | – | – | – | – | – | – | – |
| Cc1cc(-c2ccc(Cl)cc2)c(C2=NN(C(=O)C(F)(F)CC(=O)O)C(c3ccc(Cl)cc3)C2)cn1 (stereo not drawn) [Compound 73, 4-[3-(4-Chlorophenyl)-5-[4-(4-chlorophenyl)-6-methyl-3-pyridyl]-3,4-dihydropyrazol-2-yl]-3,3-difluoro-4-oxo-butanoic acid] | 100 ± 2 | – | 100 ± 2.7 | – | 111 ± 1.9 | – | 110 ± 3.1 | – | – | – | – | – | – | – | – |
| O=C(O)CC(F)(F)C(=O)N1N=C(c2c(-c3ccc(Cl)cc3)c3cccnc3[nH]c2=O)CC1c1ccc(Cl)cc1 (stereo not drawn) [Compound 88, 4-[3-(4-Chlorophenyl)-5-[4-(4-chlorophenyl)-2-oxo-1H-1,8-naphthyridin-3-yl]-3,4-dihydropyrazol-2-yl]-3,3-difluoro-4-oxo-butanoic acid] | 49 ± 7.3 | 45 | 71 ± 0.9 | 67 | 6.6 ± 0.9 | 2.1 | 3.8 ± 0.6 | 1.3 | 35 | 52 | – | – | – | – | – |
| O=C(CCc1nnn[nH]1)N1N=C(c2c(-c3ccc(Cl)cc3)c3ccccc3[nH]c2=O)CC1c1ccc(Cl)cc1 (stereo not drawn) [Compound 109, 4-(4-Chlorophenyl)-3-[3-(4-chlorophenyl)-2-[3-(1H-tetrazol-5-yl)propanoyl]-3,4-dihydropyrazol-5-yl]-1H-quinolin-2-one] | 29 ± 4.1 | – | 48 ± 1.9 | – | 2.3 ± 0.5 | – | 2.4 ± 1.6 | – | 42 | 56 | – | – | – | – | – |
| O=C(CCc1nccs1)N1N=C(c2c(-c3ccc(Cl)cc3)c3ccccc3[nH]c2=O)CC1c1ccc(Cl)cc1 (stereo not drawn) [Compound 123, 4-(4-Chlorophenyl)-3-[3-(4-chlorophenyl)-2-(3-thiazol-2-ylpropanoyl)-3,4-dihydropyrazol-5-yl]-1H-quinolin-2-one] | – | – | – | – | – | – | – | – | – | – | – | 96 ± 1.8^c (n = 2, 8) % | 94 ± 1.7^c (n = 2, 8) % | 71 ± 4.8^c (n = 2, 8) % | 67 ± 5.1^c (n = 2, 8) % |
